Results on 26 compounds are retold here after US9926318B2, “Tetracyclic autotaxin inhibitors” (PharmAkea, Inc., priority 2013, dated 2018).

Structures are written as SMILES. Bounds are passed on as bounds.

The term IC50 denotes the concentration at which inhibition is half-maximal. A high value points to lower potency.

For one data set, the target named is human autotaxin (ATX) (Homo sapiens (Human), UniProt Q13822). The experiment in a line: Human autotaxin assay (choline release from LPC, Hep3B conditioned media). Format: biochemical. Particulars: concentrated conditioned media from Hep3B cells, LPC substrate. As to the method:
ATX activity is assayed in concentrated conditioned media from Hep3B human hepatocellular carcinoma cells by measuring the amount of choline released from the substrate, lysophosphatidylcholine (LPC) as it is cleaved to LPA. Conditioned media is collected from confluent Hep3B cells and concentrated 20-fold using Centriprep-30 filter devices (Millipore). […] 100 μl of a color mix containing 4.5 mM 4-aminoantipyrine, 2.7 mM N-ethyl-N-(2-hydroxy-3-sulfopropyl)-m-toluidine, 21 units/ml horseradish peroxidase and 3 units/ml choline oxidase in 50 mM Tris, pH 8, 4.5 mM MgCl2 is added and the incubation continued for 15 minutes at room temperature before reading the absorbance at 555 nm.

Data set [1] is described as follows: rat male reproductive tissue toxicity study. The class given is in vivo. Particulars: for decreases in the testes weight (as a percentage of body weight): dosed at 300 mpk PO for 5 days; for decreases in testes weight: rat male reproductive tissue toxicity study. As to the method:
In some embodiments, male reproductive tissue toxicity can be assessed in suitable in vivo models. In some embodiments, male reproductive tissue toxicity is assessed by monitoring any decreases in the testes weight and/or epididymis weight.

In turn, `O=C(O)CCCN1C(=O)C2Cc3c(n(Cc4ccc(F)cc4)c4ccccc34)CN2C1=O` (racemic) [Compound 1-1, 4-(6-(4-fluorobenzyl)-1,3-dioxo-11,11a-dihydro-1H-imidazo[1′,5′:1,6]pyrido[3,4-b]indol-2(3H,5H,6H)-yl)butanoic acid] returned a half-inhibitory concentration (IC50) at human autotaxin (ATX) of less than 0.5 µM. In data set [1], the “decreases in the testes weight (as a percentage of body weight)” value was “no decreases in the testes weight” and the “decreases in testes weight” value is “did not exhibit the same effects”.

For the compound `O=C1NC(=O)N2Cc3c(c4ccccc4n3Cc3ccc(F)cc3)CC12` (racemic) [Compound 1-15, 6-(4-fluorobenzyl)-5,6,11,11a-tetrahydro-1H-imidazo[1′,5′:1,6]pyrido[3,4-b]indole-1,3(2H)-dione], at human autotaxin (ATX), the IC50 is less than 0.5 µM. In data set [1], the “decreases in the testes weight (as a percentage of body weight)” value is “no decreases in the testes weight” and the “decreases in testes weight” value was “did not exhibit the same effects”.

`O=C(O)CCN1C(=O)[C@@H]2Cc3c(n(Cc4ccc(F)cc4)c4ccccc34)CN2C1=O` [Compound 1-5, (S)-3-(6-(4-fluorobenzyl)-1,3-dioxo-5,6,11,11a-tetrahydro-1H-imidazo[1′,5′:1,6]pyrido[3,4-b]indol-2(3H)-yl)propanoic acid]: the “decreases in testes weight” value in data set [1] is listed as “undesired decreases in testes weight”.

`CC(C)(CCN1C(=O)[C@@H]2Cc3c(n(Cc4ccc(F)cc4)c4ccccc34)CN2C1=O)C(=O)O` [Compound 1-39, (S)-4-(6-(4-fluorobenzyl)-1,3-dioxo-5,6,11,11a-tetrahydro-1H-imidazo[1′,5′:1,6]pyrido[3,4-b]indol-2(3H)-yl)-2,2-dimethylbutanoic acid] had a half-inhibitory concentration (IC50) on human autotaxin (ATX) of less than 0.5 µM.

The compound `CC(C)(CC(=O)O)CN1C(=O)[C@@H]2Cc3c(n(Cc4ccc(F)cc4)c4ccccc34)CN2C1=O` [Compound 1-42, (S)-4-(6-(4-fluorobenzyl)-1,3-dioxo-5,6,11,11a-tetrahydro-1H-imidazo[1′,5′:1,6]pyrido[3,4-b]indol-2(3H)-yl)-3,3-dimethylbutanoic acid] returned an IC50 against human autotaxin (ATX) of less than 0.5 µM.

For the compound `O=C(O)CCN1C(=O)[C@@H]2Cc3c(n(Cc4ccc(Cl)nc4)c4ccccc34)CN2C1=O` [Compound 1-84, (S)-3-(6-((6-chloropyridin-3-yl)methyl)-1,3-dioxo-5,6,11,11a-tetrahydro-1H-imidazo[1′,5′:1,6]pyrido[3,4-b]indol-2(3H)-yl)propanoic acid], the 50% inhibitory concentration (IC50) at human autotaxin (ATX) is less than 0.5 µM.

In the case of `O=C(O)CCN1C(=O)[C@@H]2Cc3c(n(Cc4cnc(C(F)(F)F)s4)c4ccccc34)CN2C1=O` [Compound 1-102, (S)-3-(1,3-dioxo-6-((2-(trifluoromethyl)thiazol-5-yl)methyl)-11,11a-dihydro-1H-imidazo[1′,5′:1,6]pyrido[3,4-b]indol-2(3H,5H,6H)-yl)propanoic acid], the 50% inhibitory concentration (IC50) at human autotaxin (ATX) was less than 0.5 µM.

In turn, `O=C1C2Cc3c(n(Cc4ccc(F)cc4)c4ccccc34)CN2C(=O)N1CCO` (stereo not drawn) [Compound 1-121, 6-(4-fluorobenzyl)-2-(2-hydroxyethyl)-5,6,11,11a-tetrahydro-1H-imidazo[1′,5′:1,6]pyrido[3,4-b]indole-1,3(2H)-dione] showed a concentration for half-maximal inhibition (IC50) at human autotaxin (ATX) of less than 0.5 µM.

In turn, `O=C1NC(=O)N2Cc3c(c4ccccc4n3Cc3ccc(F)cc3)C[C@@H]12` [Compound 1-130, (S)-6-(4-fluorobenzyl)-5,6,11,11a-tetrahydro-1H-imidazo[1′,5′:1,6]pyrido[3,4-b]indole-1,3(2H)-dione] showed an IC50 at human autotaxin (ATX) of less than 0.5 µM.

In turn, `COc1ccc(Cn2c3c(c4ccccc42)C[C@H]2C(=O)N(CCC(=O)O)C(=O)N2C3)cc1` [Compound 1-131, (S)-3-(6-(4-methoxybenzyl)-1,3-dioxo-11,11a-dihydro-1H-imidazo[1′,5′:1,6]pyrido[3,4-b]indol-2(3H,5H,6H)-yl)propanoic acid] returned a concentration for half-maximal inhibition (IC50) against human autotaxin (ATX) of less than 0.5 µM.

In turn, `O=C(O)CCN1C(=O)[C@@H]2Cc3c(n(Cc4ccc(Cl)cc4Cl)c4ccccc34)CN2C1=O` [Compound 1-132, (S)-3-(6-(2,4-dichlorobenzyl)-1,3-dioxo-11,11a-dihydro-1H-imidazo[1′,5′:1,6]pyrido[3,4-b]indol-2(3H,5H,6H)-yl)propanoic acid] yielded a 50% inhibitory concentration (IC50) against human autotaxin (ATX) of less than 0.5 µM.

`O=C(O)CCN1C(=O)[C@@H]2Cc3c(n(Cc4ccc(Cl)cc4F)c4ccccc34)CN2C1=O` [Compound 1-133, (S)-3-(6-(4-chloro-2-fluorobenzyl)-1,3-dioxo-11,11a-dihydro-1H-imidazo[1′,5′:1,6]pyrido[3,4-b]indol-2(3H,5H,6H)-yl)propanoic acid] displayed a half-maximal inhibitory concentration (IC50) on human autotaxin (ATX) of less than 0.5 µM.

At human autotaxin (ATX), `O=C(O)CCN1C(=O)[C@@H]2Cc3c(n(Cc4ccc(F)cc4F)c4ccccc34)CN2C1=O` [Compound 1-134, (S)-3-(6-(2,4-difluorobenzyl)-1,3-dioxo-11,11a-dihydro-1H-imidazo[1′,5′:1,6]pyrido[3,4-b]indol-2(3H,5H,6H)-yl)propanoic acid] showed an IC50 of less than 0.5 µM.

In turn, `O=C(O)CCN1C(=O)[C@@H]2Cc3c(n(Cc4ccc(F)nc4)c4ccccc34)CN2C1=O` [Compound 1-135, (S)-3-(6-((6-fluoropyridin-3-yl)methyl)-1,3-dioxo-11,11a-dihydro-1H-imidazo[1′,5′:1,6]pyrido[3,4-b]indol-2(3H,5H,6H)-yl)propanoic acid] registered a half-inhibitory concentration (IC50) at human autotaxin (ATX) of less than 0.5 µM.

`O=C(O)CCN1C(=O)N2Cc3c(c4ccccc4n3Cc3ccc(F)cc3)C[C@H]2C1=S` [Compound 1-141, (S)-3(6-(4-fluorobenzyl)-3-oxo-1-thioxo-5,6,11,11a-tetrahydro-1H-imidazo[1′,5′:1,6]pyrido[3,4-b]indol-2(3H)-yl)propanoic acid] yielded a concentration for half-maximal inhibition (IC50) against human autotaxin (ATX) greater than 1 µM.

As to `CS(=O)(=O)NC(=O)CCN1C(=O)[C@@H]2Cc3c(n(Cc4ccc(F)cc4)c4ccccc34)CN2C1=O` [Compound 1-142, (S)-3-(6-(4-fluorobenzyl)-1,3-dioxo-11,11a-dihydro-1H-imidazo[1′,5′:1,6]pyrido[3,4-b]indol-2(3H,5H,6H)-yl)-N-(methylsulfonyl)propanamide], the IC50 against human autotaxin (ATX) is less than 0.5 µM.

Compound `O=C(CCN1C(=O)[C@@H]2Cc3c(n(Cc4ccc(F)cc4)c4ccccc34)CN2C1=O)NS(=O)(=O)c1ccccc1` [Compound 1-143, (S)-3-(6-(4-fluorobenzyl)-1,3-dioxo-11,11a-dihydro-1H-imidazo[1′,5′:1,6]pyrido[3,4-b]indol-2(3H,5H,6H)-yl)-N-(phenylsulfonyl)propanamide] returned an IC50 against human autotaxin (ATX) of less than 0.5 µM.

In the case of `CC1(C)c2c(n(Cc3ccc(F)cc3)c3ccccc23)CN2C(=O)N(CCC(=O)O)C(=O)C21` (stereo not drawn) [Compound A11, 3-(6-(4-fluorobenzyl)-11,11-dimethyl-1,3-dioxo-5,6,11,11a-tetrahydro-1H-imidazo[1′,5′:1,6]pyrido[3,4-b]indol-2(3H)-yl)propanoic acid], the 50% inhibitory concentration (IC50) against human autotaxin (ATX) was less than 0.5 µM.

In turn, `CC12Cc3c(n(Cc4ccc(F)cc4)c4ccccc34)CN1C(=O)N(CCC(=O)O)C2=O` (stereo not drawn) [Compound A113, 3-(6-(4-fluorobenzyl)-11a-methyl-1,3-dioxo-11,11a-dihydro-1H-imidazo[1′,5′:1,6]pyrido[3,4-b]indol-2(3H,5H,6H)-yl)propanoic acid] gave a half-maximal inhibitory concentration (IC50) against human autotaxin (ATX) greater than 1 µM.

Compound `CC1(C)c2c(n(Cc3ccc(F)cc3)c3ncccc23)CN2C(=O)N(CCC(=O)O)C(=O)C21` (stereo not drawn) [Compound C11, 3-{8-[(p-fluorophenyl)methyl]-16,16-dimethyl-12,14-dioxo-6.8.11.13-tetrazatetracyclo[7.7.0.02,7.011,15]hexadeca-1(9),2(7),3,5-tetraene-13-yl}propionic acid] showed an IC50 against human autotaxin (ATX) of less than 0.5 µM.

`O=C1NC(=O)N2Cc3c(c4cccnc4n3Cc3ccc(F)cc3)CC12` (stereo not drawn) [Compound C109]: the IC50 on human autotaxin (ATX) is less than 0.5 µM.

Compound `CC(C)(CN1C(=O)C2Cc3c(n(Cc4ccc(F)cc4)c4ncccc34)CN2C1=O)C(=O)O` (stereo not drawn) [Compound C111, 3-{8-[(p-fluorophenyl)methyl]-12,14-dioxo-6.8.11.13-tetrazatetracyclo[7.7.0.02,7.011,15]hexadeca-1(9),2(7),3,5-tetraene-13-yl}-2,2-dimethyl propionic acid] had an IC50 against human autotaxin (ATX) of less than 0.5 µM.

`O=C(O)CCN1C(=O)C2Cc3c(n(Cc4ccc(F)cc4)c4ncccc34)CN2C1=O` (stereo not drawn) [Compound C114, 3-{8-[(4-fluorophenyl)methyl]-12,14-dioxo-6.8.11.13-tetraazatetracyclo[7.7.0.02, 7.011,15]hexadeca-1(9),2(7),3,5-tetraen-13-yl}propionic acid] yielded an IC50 at human autotaxin (ATX) of less than 0.5 µM.

`O=C(O)CCN1C(=O)[C@@H]2Cc3c(n(Cc4ccc(F)cc4)c4ccccc34)CN2C1=S` [Compound E1, (S)-3-(6-(4-fluorobenzyl)-1-oxo-3-thioxo-5,6,11,11a-tetrahydro-1H-imidazo[1′,5′:1,6]pyrido[3,4-b]indol-2(3H)-yl)propanoic acid]: the IC50 against human autotaxin (ATX) was greater than 1 µM.

For the compound `O=C1NC(=S)N2Cc3c(c4ccccc4n3Cc3ccc(F)cc3)C[C@@H]12` [Compound E2, (S)-6-(4-fluorobenzyl)-3-thioxo-2,3,5,6,11,11a-hexahydro-1H-imidazo[1′,5′:1,6]pyrido[3,4-b]indol-1-one], the IC50 on human autotaxin (ATX) is less than 0.5 µM.

On to `O=C1NC(=S)N2Cc3c(c4cccnc4n3Cc3ccc(F)cc3)CC12` (stereo not drawn) [Compound E3], for which the IC50 at human autotaxin (ATX) was less than 0.5 µM.
